According to the supplement of paper PMC10878532, “Sperm Toolbox—A selection of small molecules to study human spermatozoa” (PLOS ONE, 2024):

Tests used:
HeLa [1] = assay: HeLa toxicity: nuclei-count effect normalised to DMSO (DMSO = 0); higher = more features changed / larger toxic effect; settings: incubation time: 24h incubation
HeLa [2] = assay: Cell Painting percent induction (share of features beyond 2 z-scores vs DMSO); higher = more features changed / larger toxic effect; extreme values may be limits of the assay; settings: incubation time: 24h incubation
human spermatozoa [3] = assay: total motile sperm, percent change vs DMSO (non-capacitating); higher = more of the measured sperm population than DMSO, for viability, fewer PI-positive (dead) cells than DMSO
human spermatozoa [4] = assay: viability fold change, 1 - (PI-positive fraction / DMSO median); higher = more of the measured sperm population than DMSO, for viability, fewer PI-positive (dead) cells than DMSO; settings: incubation time: 3h, non-capacitating
human spermatozoa [5] = assay: progressively motile sperm, percent change vs DMSO (capacitating); higher = more of the measured sperm population than DMSO, for viability, fewer PI-positive (dead) cells than DMSO; settings: incubation time: 30min incubation
human spermatozoa [6] = assay: hyperactivated motile sperm, percent change vs DMSO (capacitating); higher = more of the measured sperm population than DMSO, for viability, fewer PI-positive (dead) cells than DMSO; settings: incubation time: 30min incubation
human spermatozoa [7] = assay: change in acrosome-reacted (PNA+) sperm vs DMSO, no agonist (capacitating); higher = more of the measured sperm population than DMSO, for viability, fewer PI-positive (dead) cells than DMSO; settings: incubation time: 3h
human spermatozoa [8] = assay: acrosome-reacted (PNA+) sperm after agonist cocktail, percent change vs DMSO (capacitating); higher = more of the measured sperm population than DMSO, for viability, fewer PI-positive (dead) cells than DMSO; settings: incubation time: 3h, capacitating + agonist cocktail 1h
human spermatozoa [9] = assay: progressively motile sperm, percent change vs DMSO (non-capacitating); higher = more of the measured sperm population than DMSO, for viability, fewer PI-positive (dead) cells than DMSO; extreme values may be limits of the assay
HepG2 = HepG2 toxicity (resazurin), effect normalised to DMSO (DMSO = 0); higher = more features changed / larger toxic effect; settings: incubation time: 70h incubation
[10] = incubation time: 10min incubation, 9.99 µM
[11] = incubation time: 10min incubation, 29.9 µM
[12] = incubation time: 3h incubation, 9.99 µM
[13] = incubation time: 3h incubation, 29.9 µM
[14] = incubation time: 6h incubation, 9.99 µM
[15] = incubation time: 6h incubation, 29.9 µM
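Wherever progressively motile sperm, percent change vs DMSO (non-capacitating) is given: pooled live human sperm from at least 3 donors, tracked by automated microscopy in 0.5 s time-lapse movies, compounds at 10 and 30 µM, versus median of 16 DMSO wells per plate.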
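Wherever total motile sperm, percent change vs DMSO (non-capacitating) is given: sperm pooled from at least 3 donors, tracked in 0.5 s time-lapse movies by automated microscopy after 10 min, 3 h or 6 h with compound at 10 or 30 µM.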

Row | Compound | HeLa toxicity: nuclei-count effect normalised (HeLa [1]; 9.99 µM) [%] | HeLa toxicity: nuclei-count effect normalised (HeLa [1]; 29.9 µM) [%] | Cell Painting percent induction (HeLa [2]; 9.99 µM) [%] | Cell Painting percent induction (HeLa [2]; 29.9 µM) [%] | total motile sperm (human spermatozoa [3]; [10]) [%] | total motile sperm (human spermatozoa [3]; [11]) [%] | total motile sperm (human spermatozoa [3]; [12]) [%] | total motile sperm (human spermatozoa [3]; [13]) [%] | total motile sperm (human spermatozoa [3]; [14]) [%] | total motile sperm (human spermatozoa [3]; [15]) [%] | viability fold change (human spermatozoa [4]; 9.99 µM) | viability fold change (human spermatozoa [4]; 29.9 µM) | progressively motile sperm (human spermatozoa [5]; 9.99 µM) [%] | progressively motile sperm (human spermatozoa [5]; 29.9 µM) [%] | hyperactivated motile sperm (human spermatozoa [6]; 9.99 µM) [%] | hyperactivated motile sperm (human spermatozoa [6]; 29.9 µM) [%] | change in acrosome-reacted (human spermatozoa [7]; 9.99 µM) [%] | change in acrosome-reacted (human spermatozoa [7]; 29.9 µM) [%] | acrosome-reacted (human spermatozoa [8]; 9.99 µM) [%] | acrosome-reacted (human spermatozoa [8]; 29.9 µM) [%] | progressively motile sperm (human spermatozoa [9]; [10]) [%] | progressively motile sperm (human spermatozoa [9]; [11]) [%] | progressively motile sperm (human spermatozoa [9]; [12]) [%] | progressively motile sperm (human spermatozoa [9]; [13]) [%] | progressively motile sperm (human spermatozoa [9]; [14]) [%] | progressively motile sperm (human spermatozoa [9]; [15]) [%] | HepG2 toxicity (HepG2; 10 µM) [%] | HepG2 toxicity (HepG2; 30 µM) [%]
1 | Cc1ccc(S(=O)(=O)c2c(N)n(CC(O)c3ccc([N+](=O)[O-])cc3)c3nc4ccccc4nc23)cc1 (stereo unspecified) | 9.49 | 44.6 | 0.072 | 0.648 | 1.39 | 2.71 | 1.22 | -9.75 | -1.06 | -11.3 | -0.179 | 0.2 | 7.62 | 16.1 | 2.52 | -33 | 0.985 | 1.51 | 22.3 | 49.7 | 8.38 | 7.14 | 40.6 | 20.1 | 45.4 | 24.6 |  | 
2 | COc1ccc(CCCN2CCC(COC(c3ccccc3)c3ccccc3)CC2)cc1 | 11.7 | 80.9 | 0 | 10.8 | -0.81 | 2.28 | 0.77 | -5.61 | -0.213 | -15.3 | -1.38 | -1.52 | -2.66 | -7.92 | -18.3 | -70.2 | 1.43 | 2.85 | 4.02 | 18.6 | 1.8 | -4.83 | 20 | -8.53 | 32.7 | -19.4 | 1.6 | 103
3 | Cc1[nH]c(/C=C2\C(=O)Nc3ccc(S(=O)(=O)Cc4c(Cl)cccc4Cl)cc32)c(C)c1C(=O)N1CCC[C@@H]1CN1CCCC1 | 94.7 | 92.9 | 20.4 | 17.5 | -0.103 | -18.4 | -9.66 | -49.8 | -12.2 | -57.4 | -3.34 | -3.76 | -3.18 | -76.5 | -20.8 | -80.4 | 3.55 | 20.4 | -1.2 | 30.3 | 6.38 | -35.3 | 20.9 | -68.2 | 18.6 | -82 | 102 | 103
4 | COC(=O)c1c(C)[nH]c(C)c1C(=O)c1ccccc1Cc1ccccc1 | 4.01 | 0.735 | 0 | 0.18 | 0.541 | -1.51 | -6.62 | -4.77 | -5.32 | -5.3 | 0.0191 | -0.102 | 13.4 | 14.7 | 21.1 | -0.915 | 0.874 | 0.596 | 25.4 | 48.8 | -1.68 | -2.66 | 4.27 | -4.02 | 12.6 | 4.09 | -4.33 | 10.6
5 | CC(C)(C)c1ccc(S(=O)(=O)Nc2cnc3[nH]c(C(=O)N[C@H]4CCC[C@H]4O)c(-c4ccccc4)c3c2)cc1 |  |  |  |  | -3.11 | 0.824 | 2.99 | -0.471 | -0.468 | -0.141 | 0.0771 | 0.0653 | -49.7 | -49.4 | -89.9 | -90.6 | 0.406 | 0.723 | -55.5 | -40.6 | -18.5 | -14 | -13 | -11.7 | -9.71 | -14.5 | 3.81 | 16.8
6 | CNc1ccc2oc(C[C@H]3O[C@@]4(CC[C@H]3C)O[C@H]([C@H](C)C(=O)c3ccc[nH]3)[C@H](C)C[C@H]4C)nc2c1C(=O)O | 79.6 | 94.7 | 1.33 | 14.5 | -57.2 | -78.3 | -89.9 | -93.5 | -92 | -94.3 | -2.53 | -2.38 | -89.8 | -99.9 | -68.5 | -83.7 | 45.3 | 46.5 | 106 | 106 | -82.5 | -97.5 | -99.9 | -100 | -99.9 | -100 | 99.9 | 102
7 | COc1cc2ncn(-c3cc(OCc4ccccc4C(F)(F)F)c(C(N)=O)s3)c2cc1OC | 78.2 | 78.9 | 2.81 | 2.27 | -14.5 | -45.8 | -27.6 | -55.7 | -30.1 | -57.1 | -1.45 | -1.24 | -3.24 | -34.8 | 157 | 59.7 | 0.45 | -0.12 | 123 | 120 | 16.5 | -45.9 | 26.5 | -69.6 | 43.2 | -68.4 | 17.5 | 9.88
8 | O=C(N1CCCCC1)N1CCCCC1Cc1ccccc1 (stereo unspecified) | -3.81 | -5.74 | 0 | 0 | -0.235 | 4.54 | -3.63 | 0.0877 | -4.64 | -4.36 | 0.104 | -0.0769 | 9.35 | 20.1 | 6.11 | 3.93 |  |  | 6.47 | 7.82 | -0.571 | 5.81 | 19.1 | 18.1 | 17.3 | 16.4 | 5.44 | -4.3
